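Dose response: 5 concentrations. Exposure: 48 h. Format: 96-well plates. Endpoint: linear interpolation; highest concentration if not reached. GI50: concentration for 50% inhibition of growth.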 The source made the active and inactive calls. No stated cut-off is given here; in the data, active = GI50 up to about 1.1 µM and inactive = higher.
What was measured:
Experiment in all cases: inhibition of tumour cell growth, NCI panel, 48 h
MCF7 = tested on: MCF7
UACC-62 = tested on: UACC-62
MDA-MB-435 = tested on: MDA-MB-435
DLD-1 = tested on: DLD-1
HT-29 = tested on: HT-29
M14 = tested on: M14
Malme-3M = tested on: Malme-3M
DU-145 = tested on: DU-145
LXFL 529 = tested on: LXFL 529
Hs-578T = tested on: Hs-578T
OVCAR-5 = tested on: OVCAR-5
SNB-19 = tested on: SNB-19
HOP-18 = tested on: HOP-18
SR = tested on: SR
LOX IMVI = tested on: LOX IMVI
OVCAR-8 = tested on: OVCAR-8
RXF 631 = tested on: RXF 631
SNB-75 = tested on: SNB-75
NCI/ADR-RES = tested on: NCI/ADR-RES
KM-20L2 = tested on: KM-20L2
SF-295 = tested on: SF-295
A549 = tested on: A549
OVCAR-4 = tested on: OVCAR-4
RXF 393 = tested on: RXF 393
OVCAR-3 = tested on: OVCAR-3
HL-60 = tested on: HL-60
SK-MEL-2 = tested on: SK-MEL-2
HOP-62 = tested on: HOP-62
SNB-78 = tested on: SNB-78
UO-31 = tested on: UO-31
MOLT-4 = tested on: MOLT-4
SF-539 = tested on: SF-539
EKVX = tested on: EKVX
CAKI-1 = tested on: CAKI-1
HCT-15 = tested on: HCT-15
NCI-H226 = tested on: NCI-H226
KM12 = tested on: KM12
ACHN = tested on: ACHN
SK-OV-3 = tested on: SK-OV-3
SN12C = tested on: SN12C
NCI-H522 = tested on: NCI-H522
K562 = tested on: K562
UACC-257 = tested on: UACC-257
HOP-92 = tested on: HOP-92
COLO 205 = tested on: COLO 205
SF-268 = tested on: SF-268
MDA-MB-231 = tested on: MDA-MB-231
HCT-116 = tested on: HCT-116
MDA-N = tested on: MDA-N
DMS-273 = tested on: DMS-273
U-251 = tested on: U-251
BT-549 = tested on: BT-549
NCI-H23 = tested on: NCI-H23
M19-MEL = tested on: M19-MEL
PC-3 = tested on: PC-3
SW-620 = tested on: SW-620
TK-10 = tested on: TK-10
SK-MEL-28 = tested on: SK-MEL-28
DMS-114 = tested on: DMS-114
A498 = tested on: A498
786-0 = tested on: 786-0
CCRF-CEM = tested on: CCRF-CEM
IGROV-1 = tested on: IGROV-1
HCC 2998 = tested on: HCC 2998
SK-MEL-5 = tested on: SK-MEL-5
NCI-H460 = tested on: NCI-H460
T47D = tested on: T47D
RPMI-8226 = tested on: RPMI-8226
XF498 = tested on: XF498

SMILES: C=CCc1cc(-c2cc(CC=C)c(O)c(CN(CC)CC)c2)cc(CN(CC)CC)c1O
- GI50 (MCF7): 58.5 µM (inactive)
- GI50 (UACC-62): 22.2 µM (inactive)
- GI50 (MDA-MB-435): 37.2 µM (inactive)
- GI50 (DLD-1): 70.1 µM (inactive)
- GI50 (HT-29): 15.7 µM (inactive)
- GI50 (M14): 8.93 µM (inactive)
- GI50 (Malme-3M): 16.8 µM (inactive)
- GI50 (DU-145): > 100 µM (inactive)
- GI50 (LXFL 529): 46.6 µM (inactive)
- GI50 (Hs-578T): 28.5 µM (inactive)
- GI50 (OVCAR-5): 18.8 µM (inactive)
- GI50 (SNB-19): > 97.3 µM (inactive)
- GI50 (HOP-18): > 100 µM (inactive)
- GI50 (SR): 13.5 µM (inactive)
- GI50 (LOX IMVI): 16 µM (inactive)
- GI50 (OVCAR-8): > 96.6 µM (inactive)
- GI50 (RXF 631): 14.6 µM (inactive)
- GI50 (SNB-75): > 100 µM (inactive)
- GI50 (NCI/ADR-RES): 73.1 µM (inactive)
- GI50 (KM-20L2): 14.5 µM (inactive)
- GI50 (SF-295): 33 µM (inactive)
- GI50 (A549): 71.6 µM (inactive)
- GI50 (OVCAR-4): > 100 µM (inactive)
- GI50 (RXF 393): 21.4 µM (inactive)
- GI50 (OVCAR-3): 64 µM (inactive)
- GI50 (HL-60): 35.4 µM (inactive)
- GI50 (SK-MEL-2): 26.9 µM (inactive)
- GI50 (HOP-62): 47.4 µM (inactive)
- GI50 (SNB-78): > 100 µM (inactive)
- GI50 (UO-31): 15.2 µM (inactive)
- GI50 (MOLT-4): 39.9 µM (inactive)
- GI50 (SF-539): 21.4 µM (inactive)
- GI50 (EKVX): > 80.9 µM (inactive)
- GI50 (CAKI-1): 50.2 µM (inactive)
- GI50 (HCT-15): 15.8 µM
- GI50 (NCI-H226): 48.9 µM (inactive)
- GI50 (KM12): 43.3 µM (inactive)
- GI50 (ACHN): 80 µM (inactive)
- GI50 (SK-OV-3): > 100 µM (inactive)
- GI50 (SN12C): 85.1 µM (inactive)
- GI50 (NCI-H522): 20.6 µM (inactive)
- GI50 (K562): 26.1 µM (inactive)
- GI50 (UACC-257): 23.6 µM (inactive)
- GI50 (HOP-92): 18 µM (inactive)
- GI50 (COLO 205): 26.3 µM (inactive)
- GI50 (SF-268): 76 µM (inactive)
- GI50 (MDA-MB-231): 26 µM (inactive)
- GI50 (HCT-116): 22 µM (inactive)
- GI50 (MDA-N): 31.4 µM (inactive)
- GI50 (DMS-273): 32.2 µM (inactive)
- GI50 (U-251): 42.4 µM (inactive)
- GI50 (BT-549): > 49.2 µM (inactive)
- GI50 (NCI-H23): 60.1 µM (inactive)
- GI50 (M19-MEL): 18.3 µM (inactive)
- GI50 (PC-3): 40.2 µM (inactive)
- GI50 (SW-620): 25.5 µM (inactive)
- GI50 (TK-10): 62.7 µM (inactive)
- GI50 (SK-MEL-28): 28.6 µM (inactive)
- GI50 (DMS-114): > 52.6 µM (inactive)
- GI50 (A498): > 100 µM (inactive)
- GI50 (786-0): 30.5 µM (inactive)
- GI50 (CCRF-CEM): 28.6 µM (inactive)
- GI50 (IGROV-1): > 67.6 µM (inactive)
- GI50 (HCC 2998): 29 µM (inactive)
- GI50 (SK-MEL-5): 11.1 µM (inactive)
- GI50 (NCI-H460): 21.3 µM (inactive)
- GI50 (T47D): 43 µM (inactive)
- GI50 (RPMI-8226): 27.5 µM (inactive)

SMILES: COC1=CC(=Nc2c(Cl)cc(Cl)cc2OC(=O)c2ccc([N+](=O)[O-])cc2)C=C(OC)C1=O
- GI50 (XF498): 8.39 µM (inactive)
- GI50 (UACC-62): 4.26 µM (inactive)
- GI50 (DLD-1): 12.4 µM (inactive)
- GI50 (HT-29): 18.4 µM (inactive)
- GI50 (M14): 13 µM (inactive)
- GI50 (Malme-3M): 15.5 µM (inactive)
- GI50 (LXFL 529): 5.78 µM (inactive)
- GI50 (OVCAR-5): 19.5 µM (inactive)
- GI50 (SNB-19): 16.4 µM (inactive)
- GI50 (SR): 3.22 µM (inactive)
- GI50 (LOX IMVI): 1.81 µM (inactive)
- GI50 (OVCAR-8): 7.35 µM (inactive)
- GI50 (RXF 631): 4.51 µM (inactive)
- GI50 (SNB-75): 14.2 µM (inactive)
- GI50 (KM-20L2): 17.7 µM (inactive)
- GI50 (SF-295): 11.5 µM (inactive)
- GI50 (A549): 9.77 µM (inactive)
- GI50 (OVCAR-4): 10 µM (inactive)
- GI50 (RXF 393): 12.1 µM (inactive)
- GI50 (OVCAR-3): 8.67 µM (inactive)
- GI50 (HL-60): 1.83 µM (inactive)
- GI50 (SK-MEL-2): 15.8 µM (inactive)
- GI50 (HOP-62): 21.5 µM (inactive)
- GI50 (SNB-78): 23.3 µM (inactive)
- GI50 (UO-31): 11.9 µM (inactive)
- GI50 (MOLT-4): 2.87 µM (inactive)
- GI50 (SF-539): 5.81 µM (inactive)
- GI50 (EKVX): 16 µM (inactive)
- GI50 (CAKI-1): 16.9 µM (inactive)
- GI50 (HCT-15): 5.97 µM
- GI50 (NCI-H226): 15.2 µM (inactive)
- GI50 (KM12): 15.5 µM (inactive)
- GI50 (ACHN): 10.7 µM (inactive)
- GI50 (SK-OV-3): 16.5 µM (inactive)
- GI50 (SN12C): 11.8 µM (inactive)
- GI50 (NCI-H522): 9.23 µM (inactive)
- GI50 (K562): 2.53 µM (inactive)
- GI50 (UACC-257): 11.7 µM (inactive)
- GI50 (HOP-92): 5.62 µM (inactive)
- GI50 (COLO 205): 17.5 µM (inactive)
- GI50 (SF-268): 9.64 µM (inactive)
- GI50 (HCT-116): 6.53 µM (inactive)
- GI50 (DMS-273): 13.6 µM (inactive)
- GI50 (U-251): 13.8 µM (inactive)
- GI50 (NCI-H23): 9.12 µM (inactive)
- GI50 (M19-MEL): 3.41 µM (inactive)
- GI50 (SW-620): 13.5 µM (inactive)
- GI50 (TK-10): 22.8 µM (inactive)
- GI50 (SK-MEL-28): 16.7 µM (inactive)
- GI50 (DMS-114): 3.79 µM (inactive)
- GI50 (786-0): 14.8 µM (inactive)
- GI50 (CCRF-CEM): 2.87 µM (inactive)
- GI50 (IGROV-1): 14.5 µM (inactive)
- GI50 (HCC 2998): 18.2 µM (inactive)
- GI50 (SK-MEL-5): 7.05 µM (inactive)
- GI50 (NCI-H460): 14.4 µM (inactive)
- GI50 (RPMI-8226): 5.04 µM (inactive)
